Laboratory results from PubChem BioAssay (NCI).
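Step 1: Grow cells in 96-well plates. Step 2: Expose to compound for 48 hours at 5 concentrations. Step 3: Interpolate endpoints linearly; if unreached, use highest concentration. TGI: total growth inhibition.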

Assays:
Experiment in all cases: NCI-60 cell line screen, 48 h
MDA-MB-231 breast = test system: MDA-MB-231 breast
HCC-2998 colon = test system: HCC-2998 colon
EKVX NSCLC = test system: EKVX NSCLC
OVCAR-5 ovarian = test system: OVCAR-5 ovarian
CAKI-1 renal = test system: CAKI-1 renal
NCI-H226 lung = test system: NCI-H226 lung
K-562 leukemia = test system: K-562 leukemia
NCI-H23 lung = test system: NCI-H23 lung
TK-10 renal = test system: TK-10 renal
SN12C renal = test system: SN12C renal
SK-MEL-5 melanoma = test system: SK-MEL-5 melanoma
COLO 205 colon = test system: COLO 205 colon
PC-3 prostate = test system: PC-3 prostate
A549 NSCLC = test system: A549 NSCLC
CCRF-CEM leukemia = test system: CCRF-CEM leukemia
HT29 colon = test system: HT29 colon
OVCAR-8 ovarian = test system: OVCAR-8 ovarian
U251 CNS = test system: U251 CNS
NCI-H522 lung = test system: NCI-H522 lung

| SMILES | TGI (MDA-MB-231 breast) [µM] | TGI (HCC-2998 colon) [µM] | TGI (EKVX NSCLC) [µM] | TGI (OVCAR-5 ovarian) [µM] | TGI (CAKI-1 renal) [µM] | TGI (NCI-H226 lung) [µM] | TGI (K-562 leukemia) [µM] | TGI (NCI-H23 lung) [µM] | TGI (TK-10 renal) [µM] | TGI (SN12C renal) [µM] | TGI (SK-MEL-5 melanoma) [µM] | TGI (COLO 205 colon) [µM] | TGI (PC-3 prostate) [µM] | TGI (A549 NSCLC) [µM] | TGI (CCRF-CEM leukemia) [µM] | TGI (HT29 colon) [µM] | TGI (OVCAR-8 ovarian) [µM] | TGI (U251 CNS) [µM] | TGI (NCI-H522 lung) [µM] |
| --- | --- | --- | --- | --- | --- | --- | --- | --- | --- | --- | --- | --- | --- | --- | --- | --- | --- | --- | --- |
| CC1(C)CO[P@@](=S)(c2ccccn2)O[C@@H]1c1ccccc1 | > 100 | > 100 | > 100 | > 100 | > 100 | > 100 | > 100 | > 100 | > 100 | > 100 | > 100 | > 100 | > 100 | > 100 | > 100 | > 100 | > 100 | > 100 | > 100 |
| Oc1[nH]c2ccccc2c1C1=Nc2ccccc2/C1=N\OCCOC1OCC(O)C(O)C1O (stereo unspecified) | > 100 | > 100 | > 100 | > 100 | > 100 | > 100 | > 100 | > 100 | > 100 | > 100 | > 100 | > 100 | > 100 | > 100 | > 100 | > 100 | > 100 | > 100 | > 100 |
| CC(C)=NOC(=O)CNC(=O)C(Cc1ccccc1)NC(=O)C(C)NC(=O)OC(C)(C)C (stereo unspecified) | > 100 | > 100 | > 100 | > 100 | > 100 | > 100 | > 100 | > 100 | > 100 | > 100 | > 100 | > 100 | > 100 | > 100 | > 100 | > 100 | > 100 | > 100 | > 100 |
| CC[C@@H](CCCCC1CC[C@H]2CC(=O)C[C@@H]12)OC (stereo partly specified) | > 100 | > 100 | > 100 | > 100 | > 100 | > 100 | 80.1 | > 100 | > 100 | > 100 | > 100 | > 100 | > 100 | > 100 | > 100 | > 100 | > 100 | > 100 | > 100 |
| O=C(Cn1cc(Br)c(=O)[nH]c1=O)c1ccc(-c2ccccc2)cc1 | > 52 | > 28.7 | > 100 | > 27.5 | > 41.8 | > 100 | > 17.3 | > 27.5 | > 100 | > 100 | > 29.9 | > 49.6 | > 45.9 | > 100 | > 20.2 | > 100 | 76.5 | 62.5 | > 13.9 |
| COc1ccc2c(O)c(S(=O)(=O)c3ccc(C)cc3)c(=O)oc2c1OC | > 100 | > 100 | > 100 | > 100 | > 100 | > 100 | > 100 | > 100 | > 100 | > 100 | > 100 | > 100 | > 100 | > 100 | > 100 | > 100 | > 100 | > 100 | > 100 |
| CCCCCCCCC/C=C1/CC(CO)(COC(=O)CC(C(C)C)C(C)C)OC1=O (stereo unspecified) | 15.6 | 9.86 | 20.1 | 24.6 | 17.4 | 21.5 | 28.6 | 26.9 | 15.1 | 18 | 21.9 | 4.64 | 21.3 | 13.9 | 25 | 29.9 | 29.8 | 25.6 | 23.6 |
| O=C(O)c1nc2ccc(C(F)(F)F)cc2nc1Nc1ccc(Cl)c(Cl)c1 | 26.7 | 17.6 | 22.8 | 28.9 | 30.6 | 24.9 | 16.3 | 19 | > 100 | 22.1 | 23.7 | 25.7 | 15.8 | – | – | 27.1 | 17.6 | 14.7 | 15.2 |
| C[C@@H](C[C@H]1OC(C)(C)O[C@@H]1C(C)(C)O)[C@H]1CC=C2[C@]3(C)[C@H](O)C[C@H]4C(C)(C)[C@H](O)CC[C@]4(C)[C@H]3CC[C@]21C | 18.7 | 15.8 | 21.9 | 17.1 | 19.5 | 20.6 | 13.9 | 26.1 | 17.8 | 6.51 | 18.3 | 10.5 | 14.6 | 15.2 | 14.1 | 8.23 | 27.1 | 15 | 20.9 |
| CCc1ccc2[nH]c(O)c(C3=Nc4ccccc4C3=O)c2c1 | > 100 | 53.2 | 24.2 | > 100 | > 100 | > 100 | > 100 | > 100 | 37 | > 100 | 33.4 | > 100 | 50.1 | 59.7 | > 100 | > 100 | 57 | 38.2 | 75.2 |
| CC(=O)O[C@H]1CC[C@@]2(C)C(=CC[C@@H]3[C@@H]2CC[C@]2(C)c4c(n[nH]c4C)C[C@@H]32)C1 | 38.4 | 34.1 | 34.7 | 31.1 | 32.5 | 35.2 | > 100 | 34.5 | 34.2 | 45.5 | 29.5 | 35.4 | 58.2 | 33.9 | 25.1 | 23.5 | 92.9 | 31.3 | 23 |
| CC12CC(=O)Nc3ccccc3N1C(c1ccccc1)=NO2 (stereo unspecified) | > 100 | > 100 | > 100 | > 100 | > 100 | > 100 | > 100 | > 100 | > 100 | > 100 | > 100 | > 100 | > 100 | > 100 | > 100 | > 100 | > 100 | > 100 | > 100 |
| Nc1nc2ccc(Sc3ccc4nc(N)[nH]c(=O)c4c3)cc2c(=O)[nH]1 | > 100 | > 100 | > 100 | > 100 | > 100 | 81.9 | > 100 | > 100 | > 100 | > 100 | > 100 | > 100 | > 100 | > 100 | > 100 | > 100 | > 100 | > 100 | > 100 |
| CC(O)c1cc2c(s1)C(=O)c1c(C(C)O)csc1C2=O (stereo unspecified) | 0.482 | 1.07 | 1.13 | 1.35 | 1.01 | 0.959 | 0.616 | 0.24 | 1.79 | 0.349 | 0.0716 | 2.58 | 0.514 | 0.355 | 0.492 | 2.7 | 0.717 | 4.32 | 1.13 |
| Cc1ccc(/C=C2\NC(=S)NC2=O)cc1 | > 100 | > 100 | > 100 | > 100 | > 100 | > 100 | > 100 | > 100 | > 100 | > 100 | > 100 | > 100 | > 100 | > 100 | > 100 | > 100 | > 100 | > 100 | > 100 |
| COc1ccc(/C=C2\C[C@H]3[C@@H]4CCC5=C/C(=N/O)CC[C@]5(C)[C@H]4CC[C@]3(C)\C2=N\O)cc1 | > 100 | 49.7 | > 100 | > 100 | > 100 | 95.4 | > 100 | > 100 | > 100 | > 100 | 25.9 | 43.9 | > 100 | > 100 | – | 45.3 | > 100 | > 100 | 91.7 |
| O=C(c1cccs1)c1nccc2c1cnc1ccccc12 | > 100 | > 100 | > 100 | > 100 | > 100 | > 100 | > 100 | > 100 | > 100 | > 100 | > 100 | > 100 | > 100 | > 100 | > 100 | > 100 | > 100 | > 100 | – |
| Cc1ccc(S(=O)C[C@](NC(=O)OCc2ccccc2)(Sc2ccccc2)C(F)F)cc1 (stereo partly specified) | 52.4 | 35.9 | 29.3 | 63.9 | 50.4 | 32.4 | > 100 | 36.4 | 42.6 | – | 28 | 35.9 | 74.2 | > 100 | 5.56 | 31.1 | 48.5 | 35.5 | 22.4 |
| O=c1[nH]nc(-c2ccccc2)n1/N=C/c1ccccc1O | > 100 | > 100 | > 100 | > 100 | > 100 | > 100 | > 100 | > 100 | > 100 | > 100 | > 100 | > 100 | > 100 | > 100 | – | > 100 | > 100 | > 100 | > 100 |
| CC(=O)C(C(=O)c1ccc(C)cc1)[C@H]1OC(C)(C)O[C@H]1[C@H]1COC(C)(C)O1 (stereo partly specified) | 13.6 | 14.2 | 11.7 | 18.3 | 12.8 | 29.2 | > 50 | 10 | 14.5 | 6.39 | 12.2 | 18.7 | 9.17 | 22.9 | – | 9.35 | 12.6 | 7 | 14.2 |
| Cc1ccc2nc3n[nH]c(N)c3nc2c1 | > 100 | > 100 | > 100 | > 100 | > 100 | > 100 | – | > 100 | > 100 | > 100 | > 100 | > 100 | > 100 | > 100 | > 100 | > 100 | > 100 | > 100 | > 100 |
| COc1ccc(-c2c(-c3ccc(OC)cc3)n3c(=O)n(C)c(=O)n23)cc1 | > 100 | > 100 | > 100 | – | > 100 | > 100 | > 100 | > 100 | > 100 | > 100 | > 100 | > 100 | > 100 | > 100 | > 100 | – | 52.9 | > 100 | > 100 |
| CCC(C)C(N)C(=O)N/N=C\c1c2c(nc3ccccc13)-c1cc3c(c(=O)n1C2)COC(=O)[C@]3(O)CC (stereo partly specified) | > 82.2 | 15.2 | > 100 | > 43.5 | 65.5 | 1.66 | > 45.1 | 0.401 | > 100 | > 32.5 | 0.452 | > 51.6 | > 100 | 14.2 | – | > 100 | > 20 | 0.669 | 3.23 |
| O=C1/C(=C\c2ccc(Br)cc2)CCCc2ccccc21 | 42 | 30.1 | 39 | > 100 | 68.7 | 28.6 | > 100 | 36.4 | 35.4 | 32.1 | – | 31.8 | 55.4 | > 100 | 53 | 30.4 | 28.2 | 31.2 | – |
| COc1ccc(-c2oc3cc(OC)c(OC)c(O)c3c(=O)c2OC)cc1 | 50 | > 100 | > 100 | > 100 | > 100 | > 100 | > 100 | – | > 100 | > 100 | > 100 | > 100 | > 100 | > 100 | > 100 | > 100 | > 100 | > 100 | > 100 |
